Laboratory results as given in ChEMBL document CHEMBL1629610, “A 6-aminoquinolone compound, WC5, with potent and selective anti-human cytomegalovirus activity” (Antimicrob Agents Chemother, 2009).
Calls of active or inactive are those of the source. The calls are words filed in the database; no cut-off is given here.

Columns and labels:
Human betaherpesvirus 5 [1] = assay: Antiviral activity against Human cytomegalovirus AD169 infected in human foreskin fibroblast assessed as inhibition of viral replication after 10 days by plaque reduction assay; type: functional, organism-based; settings: Human betaherpesvirus 5, AD169, 240 h
[2] = Cytotoxicity against human foreskin fibroblast after 5 days by MTT assay; type: cell-based; settings: human foreskin fibroblasts (HFF)
Human betaherpesvirus 5 [3] = assay: Antiviral activity against Human cytomegalovirus AD169 infected in human […] cells assessed as induction of GFP-tagged viral immediate early gene expression at 0.5 uM after 48 hrs by flow cytometry; type: functional, organism-based
Human betaherpesvirus 5 [4] = assay: Antiviral activity against Human cytomegalovirus infected in human […] cells transfected with pcDNA3.1-HIV1 LTR-GFP assessed as induction of GFP-tagged viral immediate early gene expression at 0.5 uM after 48 hrs by transactivation assay; type: functional, organism-based; settings: AD169
Human betaherpesvirus 5 [5] = assay: Antiviral activity against Human cytomegalovirus infected in human […] cells transfected with pcDNA3.1-human EF1alpha-GFP assessed as induction of GFP-tagged viral immediate early gene expression at 0.5 uM after 48 hrs by transactivation assay; type: functional, organism-based; settings: AD169
Human betaherpesvirus 5 [6] = assay: Antiviral activity against Human cytomegalovirus infected in human […] cells transfected with pcDNA3.1-human GADPH-GFP assessed as induction of GFP-tagged viral immediate early gene expression at 0.5 uM after 48 hrs by transactivation assay; type: functional, organism-based; settings: AD169
[7] = Cytotoxicity against human BC-3 cells by MTT assay; type: cell-based
[8] = Cytotoxicity against mouse NIH/3T3 cells by MTT assay; type: cell-based, NIH3T3
[9] = Selectivity index, ratio of CC50 for human HSB-2 cells to EC50 for Human herpesvirus 6A GS; type: toxicity, cell-based; settings: read-out: Ratio CC50/EC50
[10] = Selectivity index, ratio of CC50 for human MOLT4 cells to EC50 for Human herpesvirus 6B Z29; type: toxicity, cell-based, MOLT-4; settings: read-out: Ratio CC50/EC50
[11] = Selectivity index, ratio of CC50 for human BC-3 cells to EC50 for Human herpesvirus 8; type: toxicity, cell-based; settings: read-out: Ratio CC50/EC50
[12] = Selectivity index, ratio of CC50 for mouse NIH 3T3 cells to EC50 for Murine cytomegalovirus; type: toxicity, cell-based, NIH3T3; settings: read-out: Ratio CC50/EC50
[13] = Ratio of EC50 for Human cytomegalovirus AD169 to EC50 for Murine cytomegalovirus; type: functional
Human betaherpesvirus 5 [14] = assay: Antiviral activity against Human cytomegalovirus AD169 infected in human foreskin fibroblast by plaque reduction assay; type: functional, organism-based; settings: Human betaherpesvirus 5, AD169
Human betaherpesvirus 5 [15] = assay: Antiviral activity against GCV-resistant Human cytomegalovirus 759rD100 harboring 4-aa deletion (638-641) in UL97 kinase and DNA polymerase A987G mutant infected in human foreskin fibroblast by plaque reduction assay; type: functional, organism-based; settings: Human betaherpesvirus 5, 759rD100
Human betaherpesvirus 5 [16] = assay: Antiviral activity against Human cytomegalovirus AD169 infected in human […] cells assessed as induction of GFP-tagged viral immediate early gene expression at 50 uM after 48 hrs by flow cytometry; type: functional, organism-based
Human betaherpesvirus 5 [17] = assay: Antiviral activity against Human cytomegalovirus infected in human […] cells transfected with pcDNA3.1-HIV1 LTR-GFP assessed as induction of GFP-tagged viral immediate early gene expression at 50 uM after 48 hrs by transactivation assay; type: functional, organism-based; settings: AD169
Human betaherpesvirus 5 [18] = assay: Antiviral activity against Human cytomegalovirus infected in human […] cells transfected with pcDNA3.1-human EF1alpha-GFP assessed as induction of GFP-tagged viral immediate early gene expression at 50 uM after 48 hrs by transactivation assay; type: functional, organism-based; settings: AD169
Human betaherpesvirus 5 [19] = assay: Antiviral activity against Human cytomegalovirus infected in human […] cells transfected with pcDNA3.1-human GADPH-GFP assessed as induction of GFP-tagged viral immediate early gene expression at 50 uM after 48 hrs by transactivation assay; type: functional, organism-based; settings: AD169
HSB-2 = assay: Antiviral activity against Human herpesvirus 6A GS infected in human HSB-2 cells assessed as inhibition of virus-induced cytopathic effect by microscopic estimation; type: functional, cell-based; settings: Human herpesvirus 6 (strain GS)
Human betaherpesvirus 5 [20] = assay: Antiviral activity against PFA-, acyclovir-resistant Human cytomegalovirus D100 harboring mutation in DNA polymerase infected in human foreskin fibroblast by plaque reduction assay; type: functional, organism-based; settings: Human betaherpesvirus 5, D100
Human betaherpesvirus 5 [21] = assay: Antiviral activity against GDG-, GCV-resistant Human cytomegalovirus K17 harboring 4-aa deletion (638-641) in UL97 kinase infected in human foreskin fibroblast by plaque reduction assay; type: functional, organism-based; settings: Human betaherpesvirus 5, K17
Human betaherpesvirus 5 [22] = assay: Antiviral activity against GDG-, GCV-,CDV-resistant Human cytomegalovirus P53 harboring DNA polymerase A987G mutant gene infected in human foreskin fibroblast by plaque reduction assay; type: functional, organism-based; settings: Human betaherpesvirus 5, P53
[23] = Antiviral activity against Human herpesvirus 6A GS infected in human HSB-2 cells assessed as inhibition of virus DNA replication after 12 days by quantitative real time PCR; type: functional, cell-based, Human herpesvirus 6 (strain GS); settings: Human betaherpesvirus 6A, HSB2, 288 h
MOLT-4 = assay: Antiviral activity against Human herpesvirus 6B Z29 infected in human MOLT4 cells assessed as inhibition of virus-induced cytopathic effect by microscopic estimation; type: functional, cell-based; settings: Human herpesvirus 6 strain Z29
[24] = Antiviral activity against Human herpesvirus 6B Z29 infected in human MOLT4 cells assessed as inhibition of virus DNA replication after 12 days by quantitative real time PCR; type: functional, cell-based, Human herpesvirus 6 strain Z29; settings: Human betaherpesvirus 6B, MOLT-4, 288 h
Human gammaherpesvirus 8 [25] = assay: Antiviral activity against Human herpesvirus 8 infected in human BC-3 cells assessed as inhibition of virus-induced cytopathic effect by microscopic estimation; type: functional, organism-based
Human gammaherpesvirus 8 [26] = assay: Antiviral activity against Human herpesvirus 8 infected in human BC-3 cells assessed as inhibition of virus DNA replication after 12 days by quantitative real time PCR; type: functional, organism-based; settings: Human gammaherpesvirus 8, BC-3, 288 h
[27] = Antiviral activity against Murine cytomegalovirus Smith infected in mouse NIH-3T3 cells assessed as inhibition of virus DNA replication after 12 days by plaque reduction assay; type: functional, cell-based, Murine cytomegalovirus (strain Smith); settings: Murid betaherpesvirus 1, NIH3T3, 288 h
[28] = Cytotoxicity against human HSB2 cells by MTT assay; type: cell-based, CCRF-HSB-2
[29] = Cytotoxicity against human MOLT4 cells by MTT assay; type: cell-based, MOLT-4
[30] = Selectivity index, ratio of CC50 for Human foreskin fibroblast to EC50 for Human cytomegalovirus AD169

**Q.** For `Nc1nc2c(ncn2COC(CO)CO)c(=O)[nH]1` [GANCICLOVIR], which EC50 (Human betaherpesvirus 5 [1]) is on record?
**A.** 1.9 µM

**Q.** And the CC50 at 120 h [2]?
**A.** 550 µM

**Q.** For `Nc1cc2c(=O)c(C(=O)O)cn(C3CC3)c2cc1N1CCN(c2nc3ccccc3s2)CC1`, which CC50 at 120 h [2] is on record?
**A.** 4.5 µM

**Q.** What about the Activity (Human betaherpesvirus 5 [3]) of the same molecule?
**A.** Active

**Q.** And the Activity (Human betaherpesvirus 5 [4])?
**A.** Active

**Q.** And the Activity (Human betaherpesvirus 5 [5])?
**A.** Active

**Q.** And the Activity (Human betaherpesvirus 5 [6])?
**A.** Active

**Q.** Which CC50 [7] does the source give for `Nc1cc2c(=O)c(C(=O)O)cn(C3CC3)c2cc1N1CCN(c2ccccn2)CC1` here?
**A.** 47 µM

**Q.** What about the CC50 [8] of the same molecule?
**A.** 275 µM

**Q.** What about the selectivity ratio [9] of the same molecule?
**A.** 6

**Q.** And the selectivity ratio [10]?
**A.** 7

**Q.** What about the selectivity ratio [11] of the same molecule?
**A.** 3

**Q.** And the selectivity ratio [12]?
**A.** 25

**Q.** And the “fold change (FC)” value [13]?
**A.** 10

**Q.** And the EC50 (Human betaherpesvirus 5 [14])?
**A.** 0.9 µM

**Q.** And the EC50 (Human betaherpesvirus 5 [15])?
**A.** 0.9 µM

**Q.** And the CC50 at 120 h [2]?
**A.** 431 µM

**Q.** And the Activity (Human betaherpesvirus 5 [16])?
**A.** inactive

**Q.** What about the Activity (Human betaherpesvirus 5 [17]) of the same molecule?
**A.** inactive

**Q.** What about the Activity (Human betaherpesvirus 5 [18]) of the same molecule?
**A.** inactive

**Q.** And the Activity (Human betaherpesvirus 5 [19])?
**A.** inactive

**Q.** What about the Activity (HSB-2) of the same molecule?
**A.** Active

**Q.** What about the EC50 (Human betaherpesvirus 5 [20]) of the same molecule?
**A.** 1.1 µM

**Q.** And the EC50 (Human betaherpesvirus 5 [21])?
**A.** 1.5 µM

**Q.** What about the EC50 (Human betaherpesvirus 5 [22]) of the same molecule?
**A.** 1 µM

**Q.** What about the EC50 [23] of the same molecule?
**A.** 5.1 µM

**Q.** And the Activity (MOLT-4)?
**A.** Active

**Q.** What about the EC50 [24] of the same molecule?
**A.** 3.3 µM

**Q.** What about the Activity (Human gammaherpesvirus 8 [25]) of the same molecule?
**A.** Active

**Q.** And the EC50 (Human gammaherpesvirus 8 [26])?
**A.** 14.2 µM

**Q.** And the EC50 [27]?
**A.** 10.8 µM

**Q.** And the CC50 [28]?
**A.** 32 µM

**Q.** And the CC50 [29]?
**A.** 24 µM

**Q.** Which CC50 at 120 h [2] does the source give for `CC(C)(C)n1cc(C(=O)O)c(=O)c2cc(N)c(N3CCN(c4ccccn4)CC3)cc21` here?
**A.** ≥ 475 µM

**Q.** And the “Ratio CC50/EC50” value [30]?
**A.** >=13

**Q.** Which CC50 at 120 h [2] does the source give for `Cn1cc(C(=O)O)c(=O)c2cc(N)c(N3CCN(c4ccccn4)CC3)cc21` here?
**A.** 54 µM

**Q.** What about the “Ratio CC50/EC50” value [30] of the same molecule?
**A.** 77
